Measured values: patent EP4793267A1, “CARBONATE CONTAINING LIPID COMPOUNDS AND COMPOSITIONS FOR INTRACELLULAR DELIVERY OF THERAPEUTIC AGENTS” (ModernaTX, Inc., priority 2019, dated 2021)

What was measured:
[1] = system: hepatocyte protein expression (hEPO); test: Expression of hEPO induced by LNPs comprising the lipid and hEPO mRNA in mice; format: in vivo; settings: LNP with DSPC, cholesterol, PEG-1, mRNA encoding hEPO, CD-1 mice; for hEPO AUC: intravenous; for Mean 6 hr hEPO Concentration (mIU/mL): serum, 6 h after intravenous injection
Method: (§1) To assess potency of expression and metabolic stability of lipids of the disclosure the hepatocyte protein expression (hEPO) following administration of a nanoparticle of the disclosure (e.g., a loaded LNP) to mice was measured.
(§2) Lipid nanoparticles (LNPs) including DSPC as a phospholipid, cholesterol as a structural lipid, PEG-1 as a PEG lipid, a compound according to Formula (A), (A1), (A2), (A3), (B), (1), (I'), (I-X), (I-Y), (I-Ya) (IA), (Ia), (Ib), (Ic), (Id), (Ie), (If), (Ig), (II), (IIa), or (IIb), and an mRNA encoding hEPO were intravenously administered to CD-1 mice. The concentration of hEPO in serum was tested at 6 h after injection. […] Table 2. Expression of hEPO induced by administration of LNPs comprising lipids of the disclosure in mice and residual lipid levels in the liver.

[2] = Residual parent lipid levels in the liver after LNP administration to mice; format: in vivo; settings: 24 h after intravenous LNP administration, CD-1 mice
Method: as §1, §2

## CCCCCCCCCOC(=O)OCCCCCCN(CCO)CCCCCCCC(=O)OC(CCCCCCCC)CCCCCCCC [Compound 6, Heptadecan-9-yl 8-((2-hydroxyethyl)(6-(((nonyloxy)carbonyl)oxy)hexyl)amino)octanoate]
[1]
  hEPO AUC: 8.19E+06
  Mean 6 hr hEPO Concentration (mIU/mL): 509181.4 mIU/mL
[2]
  Parent Lipid Remaining (nmol/g liver tissue) at 24 h: 3 ± 1 nmol/g liver tissue

## CCCCCCCCC(CCCCCCCC)OC(=O)CCCCCCCN(CCO)CCCCCCOC(=O)OCCC(CCCCC)CCCCC [Compound 64, Heptadecan-9-yl 8-((2-hydroxyethyl)(6-((((3-pentyloctyl)oxy)carbonyl)oxy)hexyl)amino)octanoate]
[1]
  hEPO AUC: 1.11E+07
  Mean 6 hr hEPO Concentration (mIU/mL): 735556.2 mIU/mL
[2]
  Parent Lipid Remaining (nmol/g liver tissue) at 24 h: 72 ± 17 nmol/g liver tissue

## CCCCCCCCC(CCCCCCCC)OC(=O)CCCCCCCN(CCCCCCOC(=O)OCCC(CCCCCC)CCCCCC)CCCNc1c(NC)c(=O)c1=O [Compound 65, Heptadecan-9-yl 8-((6-((((3-hexylnonyl)oxy)carbonyl)oxy)hexyl)(3-((2-(methylamino)-3,4-dioxocyclobut-1-en-1-yl)amino)propyl)amino)octanoate]
[1]
  hEPO AUC: 7.76E+06
  Mean 6 hr hEPO Concentration (mIU/mL): 521341.6 mIU/mL
[2]
  Parent Lipid Remaining (nmol/g liver tissue) at 24 h: 364 ± 58 nmol/g liver tissue

## CCCCCCCCC(CCCCCCCC)OC(=O)CCCCCCCN(CCO)CCCCCCOC(=O)OCCC(CCCCCC)CCCCCC [Compound 66, Heptadecan-9-yl 8-((6-((((3-hexylnonyl)oxy)carbonyl)oxy)hexyl)(2-hydroxyethyl)amino)octanoate]
[1]
  hEPO AUC: 9.77E+06
  Mean 6 hr hEPO Concentration (mIU/mL): 641899.1 mIU/mL
[2]
  Parent Lipid Remaining (nmol/g liver tissue) at 24 h: 67 ± 8 nmol/g liver tissue

## CCCCCCCCC(CCCCCCCC)OC(=O)CCCCCCCN(CCCCCCOC(=O)OCCC(CCCCC)CCCCC)CCCNc1c(NC)c(=O)c1=O [Compound 67, Heptadecan-9-yl 8-((3-((2-(methylamino)-3,4-dioxocyclobut-1-en-1-yl)amino)propyl)(6-((((3-pentyloctyl)oxy)carbonyl)oxy)hexyl)amino)octanoate]
[1]
  hEPO AUC: 1.31E+07
  Mean 6 hr hEPO Concentration (mIU/mL): 891982.2 mIU/mL
[2]
  Parent Lipid Remaining (nmol/g liver tissue) at 24 h: 94 ± 15 nmol/g liver tissue
